Converted amounts (≈) assume the structure as drawn. Where two headings read alike, the source gives them in different places.
Assays:
Format in all cases: cell-based
[1] = test system: Streptococcus haemolyticus A 266; settings: A266, agar serial dilution, 24 hours at 37°C
[2] = test system: Pseudomonas aeruginosa Wyeth A 1058; settings: WYETHA1058, agar serial dilution, 24 hours at 37°C
Proteus morganii 2241 = settings: Morganella morganii, agar serial dilution, 24 hours at 37°C
[3] = test system: Pseudomonas aeruginosa H 10; settings: H10, agar serial dilution, 24 hours at 37°C
[4] = test system: Pseudomonas aeruginosa 2396; settings: agar serial dilution, 24 hours at 37°C
[5] = test system: Salmonella typhimurium R 127; settings: Salmonella enterica, agar serial dilution, 24 hours at 37°C
Escherichia coli U 20 = settings: U20, agar serial dilution, 24 hours at 37°C
[6] = test system: Staphylococcus aureus A 355'; settings: agar serial dilution, 24 hours at 37°C
[7] = test system: Diplococcus pneumoniae L 54; settings: Streptococcus pneumoniae, L54; agar serial dilution, 24 hours at 37°C
Proteus mirabilis H 3 = settings: H3, agar serial dilution, 24 hours at 37°C
[8] = test system: Klebsiella pneumoniae A 809; settings: A809, agar serial dilution, 24 hours at 37°C
[9] = test system: Bacillus subtilis ATCC 6633; settings: ATCC6633, agar serial dilution, 24 hours at 37°C
Salmonella dublin P 43 = settings: Salmonella enterica, P43; agar serial dilution, 24 hours at 37°C
Proteus mirabilis A 1200 = settings: A1200, agar serial dilution, 24 hours at 37°C
[10] = test system: Pasteurella multocida A 723; settings: A723, agar serial dilution, 24 hours at 37°C
[11] = test system: Staphylococcus aureus A 321; settings: A321, agar serial dilution, 24 hours at 37°C
Proteus rettgeri A 821 [12] = settings: Providencia rettgeri, A821; agar serial dilution, 24 hours at 37°C
[13] = test system: Staphylococcus aureus A 2000; settings: A2000, agar serial dilution, 24 hours at 37°C
[14] = test system: Streptococcus faecalis L 80; settings: Enterococcus faecalis, L80; agar serial dilution, 24 hours at 37°C
[15] = test system: Staphylococcus aureus A 2001; settings: A2001, agar serial dilution, 24 hours at 37°C
[16] = test system: Haemophilus influenzae A 1030; assay: micro serial dilution test, MIC; settings: A1030, micro serial dilution (between brackets), 30°C or 37°C, about 18 hours
Proteus rettgeri A 821 [17] = assay: micro serial dilution test, MIC; settings: Providencia rettgeri, A821; micro serial dilution (between brackets), 30°C or 37°C, about 18 hours
[18] = test system: Salmonella typhimurium R172; settings: Salmonella enterica, agar serial dilution, 24 hours at 37°C
[19] = test system: Streptococcus haemolyticus A 1088; settings: A1088, agar serial dilution, 24 hours at 37°C

Row | Compound | MIC [2] [µg/mL] | MIC (Proteus morganii 2241) [µg/mL] | MIC [3] [µg/mL] | MIC [4] [µg/mL] | MIC (Escherichia coli U 20) [µg/mL] | MIC [6] [µg/mL] | MIC [7] [µg/mL] | MIC (Proteus mirabilis H 3) [µg/mL] | MIC [8] [µg/mL] | MIC [9] [µg/mL] | MIC (Salmonella dublin P 43) [µg/mL] | MIC (Proteus mirabilis A 1200) [µg/mL] | MIC [10] [µg/mL] | MIC [11] [µg/mL] | MIC (Proteus rettgeri A 821 [12]) [µg/mL] | MIC [13] [µg/mL] | MIC [14] [µg/mL] | MIC [15] [µg/mL] | MIC [16] [µg/mL] | MIC [18] [µg/mL] | other results
1 | CC1(C)S[C@@H]2[C@H](NC(=O)[C@H](NC(=O)NS(=O)(=O)O)c3ccccc3)C(=O)N2[C@H]1C(=O)O [XVII, D-6-[α-{3-(sulfo)-ureido}-benzylcarbonamido]-penicillanic acid] | 25 (≈ 52.9 µM) | 50 (≈ 106 µM) | 50 (≈ 106 µM) | 25 (≈ 52.9 µM) | 25 (≈ 52.9 µM) | 12.5 (≈ 26.5 µM) | 0.25 (≈ 0.529 µM) | < 0.75 | 100 (≈ 212 µM) | 0.5 (≈ 1.06 µM) | 6 (≈ 12.7 µM) | 3 (≈ 6.35 µM) | 0.12 (≈ 0.254 µM) | 3 (≈ 6.35 µM) | < 0.75 | 12.5 (≈ 26.5 µM) | 25 (≈ 52.9 µM) | 12.5 (≈ 26.5 µM) |  |  | MIC [1]: 0.12 µg/mL (≈ 0.254 µM); MIC [5]: 50 µg/mL (≈ 106 µM)
2 | CC(=NS(=O)(=O)N[C@@H](C(=O)N[C@@H]1C(=O)N2[C@@H]1SC(C)(C)[C@@H]2C(=O)O)c1ccccc1)N(C)C [XXI, D-6-[α-{1-(dimethylamino)-ethylideneamino-sulfonamido}-benzylcarbonamido]-penicillanic acid] | > 100 | 25 (≈ 50.2 µM) | > 100 | 100 (≈ 201 µM) | 100 (≈ 201 µM) |  | 0.75 (≈ 1.51 µM) | 50 (≈ 100 µM) | 100 (≈ 201 µM) | 0.12 (≈ 0.241 µM) | 25 (≈ 50.2 µM) | 25 (≈ 50.2 µM) | 0.75 (≈ 1.51 µM) | 1.5 (≈ 3.01 µM) |  |  | 3 (≈ 6.03 µM) |  | 1.8 (≈ 3.62 µM) | 100 (≈ 201 µM) | MIC [1]: 0.12 µg/mL (≈ 0.241 µM); MIC (Proteus rettgeri A 821 [17]): 0.6 µg/mL (≈ 1.21 µM)
3 | CN1CCCC1=NS(=O)(=O)N[C@@H](C(=O)N[C@@H]1C(=O)N2[C@@H]1SC(C)(C)[C@@H]2C(=O)O)c1ccccc1 [XXIII, D-6-[α-{1-(methylpyrrolidin-2-ylidene)-amino-sulfonamido}-benzylcarbonamido] -penicillanic acid] | > 100 | 50 (≈ 98.1 µM) | > 100 | > 100 | 100 (≈ 196 µM) | 6 (≈ 11.8 µM) | 0.5 (≈ 0.981 µM) | 50 (≈ 98.1 µM) | > 100 | 0.12 (≈ 0.235 µM) | 50 (≈ 98.1 µM) | 12.5 (≈ 24.5 µM) | 0.5 (≈ 0.981 µM) | 1 (≈ 1.96 µM) |  | 6 (≈ 11.8 µM) | 1.5 (≈ 2.94 µM) | 3 (≈ 5.89 µM) | 125 (≈ 245 µM) | 100 (≈ 196 µM) | MIC [1]: 0.06 µg/mL (≈ 0.118 µM); MIC (Proteus rettgeri A 821 [17]): 0.9 µg/mL (≈ 1.77 µM)
4 | CC1(C)S[C@@H]2[C@H](NC(=O)[C@H](NC(=O)NS(=O)(=O)NCc3ccccc3)c3ccccc3)C(=O)N2[C@H]1C(=O)O [XXXII, D-6-[α-{3-(benzylaminosulfonyl)-ureido}-benzylcarbonamido]-penicillanic acid] | 12.5 (≈ 22.3 µM) | 12.5 (≈ 22.3 µM) | 100 (≈ 178 µM) | 25 (≈ 44.5 µM) | 6 (≈ 10.7 µM) | 6 (≈ 10.7 µM) | 50 (≈ 89 µM) | 6 (≈ 10.7 µM) | 12.5 (≈ 22.3 µM) | 0.5 (≈ 0.89 µM) | 6 (≈ 10.7 µM) | 3 (≈ 5.34 µM) | 0.5 (≈ 0.89 µM) |  |  | 6 (≈ 10.7 µM) | 12.5 (≈ 22.3 µM) | 6 (≈ 10.7 µM) | 23 (≈ 41 µM) | 25 (≈ 44.5 µM) | MIC (Proteus rettgeri A 821 [17]): 0.025 µg/mL (≈ 0.0445 µM); MIC [19]: 0.25 µg/mL (≈ 0.445 µM)
5 | CC1(C)S[C@@H]2C(NC(=O)C(N)c3ccccc3)C(=O)N2[C@H]1C(=O)O (stereo partly drawn) [ampicillin, 6-(α-aminophenylacetamido) penicillanic acid, reference compound] | > 100 |  | > 100 | 50 (≈ 143 µM) | 3 (≈ 8.59 µM) | 1.5 (≈ 4.29 µM) | 0.05 (≈ 0.143 µM) | 3 (≈ 8.59 µM) | 50 (≈ 143 µM) | 0.025 (≈ 0.0715 µM) | 0.8 (≈ 2.29 µM) | 3 (≈ 8.59 µM) | 0.2 (≈ 0.572 µM) | 0.1 (≈ 0.286 µM) | 3 (≈ 8.59 µM) | 1.5 (≈ 4.29 µM) |  | 0.75 (≈ 2.15 µM) |  | 3 (≈ 8.59 µM) | 
6 | CC(=O)OCC1=C(C(=O)O)N2C(=O)[C@@H](NC(=O)CC#N)[C@H]2SC1 [cephacetril, reference compound] | > 100 | > 100 | > 100 | > 100 | 6 (≈ 17.7 µM) | 1.5 (≈ 4.42 µM) | 0.5 (≈ 1.47 µM) | 12.5 (≈ 36.8 µM) | 6 (≈ 17.7 µM) | 0.12 (≈ 0.354 µM) | 12.5 (≈ 36.8 µM) | 12.5 (≈ 36.8 µM) | 6 (≈ 17.7 µM) | 0.75 (≈ 2.21 µM) | 3 (≈ 8.84 µM) | 1.5 (≈ 4.42 µM) | 12.5 (≈ 36.8 µM) | 0.5 (≈ 1.47 µM) | 30 (≈ 88.4 µM) | 12.5 (≈ 36.8 µM) | MIC [19]: 0.5 µg/mL (≈ 1.47 µM)
7 | CC(=O)OCC1=C(C(=O)O)N2C(=O)[C@@H](NC(=O)[C@H](N)c3ccccc3)[C@H]2SC1 [cephaloglycin, 7-(α-aminophenylacetamido) cephalosporanic acid, reference compound] | > 100 | 100 (≈ 247 µM) | > 100 | > 100 | 1.5 (≈ 3.7 µM) | 12.5 (≈ 30.8 µM) | 6 (≈ 14.8 µM) | 25 (≈ 61.7 µM) | 6 (≈ 14.8 µM) | 0.25 (≈ 0.617 µM) | 12.5 (≈ 30.8 µM) | 12.5 (≈ 30.8 µM) | 50 (≈ 123 µM) | 12.5 (≈ 30.8 µM) | 1.5 (≈ 3.7 µM) | 12.5 (≈ 30.8 µM) | > 100 | 12.5 (≈ 30.8 µM) | 125 (≈ 308 µM) | 12.5 (≈ 30.8 µM) | MIC [19]: 0.25 µg/mL (≈ 0.617 µM)
8 | Cc1nnc(SCC2=C(C(=O)O)N3C(=O)[C@@H](NC(=O)Cn4cnnn4)[C@H]3SC2)s1 [cephazolin, reference compound] | > 100 | 25 (≈ 55 µM) | > 100 | > 100 | 1.5 (≈ 3.3 µM) | 1.5 (≈ 3.3 µM) | 0.25 (≈ 0.55 µM) | 6 (≈ 13.2 µM) | 1.5 (≈ 3.3 µM) | 0.25 (≈ 0.55 µM) | 1.5 (≈ 3.3 µM) | 6 (≈ 13.2 µM) | 1.5 (≈ 3.3 µM) | 0.25 (≈ 0.55 µM) |  | 0.75 (≈ 1.65 µM) | 12.5 (≈ 27.5 µM) | 0.5 (≈ 1.1 µM) |  | 3 (≈ 6.6 µM) | MIC (Proteus rettgeri A 821 [17]): 1.2 µg/mL (≈ 2.64 µM); MIC [19]: 0.12 µg/mL (≈ 0.264 µM)
